Among the data in BindingDB's records for doi:10.1021/jm701519h (Cns Biological Research, 2008) are Ki values, retold here.

The assay deals with Cannabinoid receptor 2 (Homo sapiens, UniProt P34972).
Sequence of Cannabinoid receptor 2 (P34972 whole entry): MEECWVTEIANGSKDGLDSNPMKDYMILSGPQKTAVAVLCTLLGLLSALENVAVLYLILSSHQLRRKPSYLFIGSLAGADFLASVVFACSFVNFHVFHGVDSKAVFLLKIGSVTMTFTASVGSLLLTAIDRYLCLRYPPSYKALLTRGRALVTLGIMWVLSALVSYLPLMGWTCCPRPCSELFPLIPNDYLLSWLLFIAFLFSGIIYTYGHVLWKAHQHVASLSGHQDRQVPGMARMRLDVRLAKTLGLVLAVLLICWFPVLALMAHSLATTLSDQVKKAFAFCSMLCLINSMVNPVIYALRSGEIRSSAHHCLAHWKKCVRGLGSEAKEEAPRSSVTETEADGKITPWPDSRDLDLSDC

As a reminder, the Ki is a measure of affinity in units of concentration, obtained from inhibition or displacement. Compound `O=C1C(CCC(O)c2ccc(F)cc2)C(c2ccc(O)cc2)N1c1ccc(F)cc1` (stereo unspecified) [CAS_44450418] registered a Ki of 1.82 µM.
